Results reported in PMC5218480 (PLoS ONE, 2017).

System: MV-4-11 cells
Assay: Gene expression microarray analysis (Affymetrix PrimeView) and GSEA
Type: cell-based, human
Set-up: RFU PODN (11730768_x_at) / Fold change /veh PODN (11730768_x_at) / RFU LINC00158 (11744669_a_at) / Fold change /veh LINC00158 (11744669_a_at) / RFU DUSP10 (11751237_a_at) / Fold change /veh DUSP10 (11751237_a_at) / RFU ID3 (11757404_x_at) / Fold change /veh ID3 (11757404_x_at) / RFU PLEKHG5 (11737974_s_at) / Fold change /veh PLEKHG5 (11737974_s_at) / RFU LRRC4B (11730491_at) / Fold change /veh LRRC4B (11730491_at) / RFU GIMAP4 (11747438_a_at) / Fold change /veh GIMAP4 (11747438_a_at) / RFU KRT8 (11758183_x_at) / Fold change /veh KRT8 (11758183_x_at) / RFU CNN1 (11734310_a_at) / Fold change /veh CNN1 (11734310_a_at) / RFU VPS37D (11726825_at) / Fold change /veh VPS37D (11726825_at) / RFU C10orf10 (11716522_x_at) / Fold change /veh C10orf10 (11716522_x_at) / RFU KIR2DL2 /// KIR2DL4 /// KIR2DL5A /// KIR2DL5B /// KIR2DS1 /// KIR2DS2 /// KIR2DS3 /// KIR2DS4 /// KIR3DL3 /// KIR3DL3 /// KIR3DS1 (11738374_at) / Fold change /veh KIR2DL2 /// KIR2DL4 /// KIR2DL5A /// KIR2DL5B /// KIR2DS1 /// KIR2DS2 /// KIR2DS3 /// KIR2DS4 /// KIR3DL3 /// KIR3DL3 /// KIR3DS1 (11738374_at) / RFU C1QL1 (11718748_at) / Fold change /veh C1QL1 (11718748_at) / RFU TMPRSS4 (11747572_a_at) / Fold change /veh TMPRSS4 (11747572_a_at) / RFU HAMP (11756126_x_at) / Fold change /veh HAMP (11756126_x_at) / RFU RNFT2 (11725882_a_at) / Fold change /veh RNFT2 (11725882_a_at) / RFU NR4A2 (11747474_a_at) / Fold change /veh NR4A2 (11747474_a_at) / RFU ABCC12 (11746883_a_at) / Fold change /veh ABCC12 (11746883_a_at) / RFU TMEM136 (11760407_x_at) / Fold change /veh TMEM136 (11760407_x_at) / RFU CLDN22 /// WWC2 (11732394_at) / Fold change /veh CLDN22 /// WWC2 (11732394_at) / RFU HLA-DPB1 (11760878_x_at) / Fold change /veh HLA-DPB1 (11760878_x_at) / RFU SPINT1 (11716480_a_at) / Fold change /veh SPINT1 (11716480_a_at) / RFU GAP43 (11754022_s_at) / Fold change /veh GAP43 (11754022_s_at) / RFU A4GNT (11735810_at) / Fold change /veh A4GNT (11735810_at) / RFU PRB3 (11715151_x_at) / Fold change /veh PRB3 (11715151_x_at) / RFU TUBB4B (11761932_at) / Fold change /veh TUBB4B (11761932_at) / RFU CAPN14 (11732068_a_at) / Fold change /veh CAPN14 (11732068_a_at) / RFU TMCC2 (11721928_a_at) / Fold change /veh TMCC2 (11721928_a_at) / RFU IRGQ (11745062_a_at) / Fold change /veh IRGQ (11745062_a_at) / RFU FAM174B (11720279_a_at) / Fold change /veh FAM174B (11720279_a_at) / RFU TMPRSS4 (11748680_a_at) / Fold change /veh TMPRSS4 (11748680_a_at) / RFU FAM212B (11763350_a_at) / Fold change /veh FAM212B (11763350_a_at) / RFU PLEKHG5 (11743358_a_at) / Fold change /veh PLEKHG5 (11743358_a_at) / RFU ZSCAN30 (11745921_a_at) / Fold change /veh ZSCAN30 (11745921_a_at) / RFU CMKLR1 (11741424_a_at) / Fold change /veh CMKLR1 (11741424_a_at) / RFU LOC101060620 /// MAPK8IP1 (11723275_at) / Fold change /veh LOC101060620 /// MAPK8IP1 (11723275_at) / RFU SPTSSB (11747773_x_at) / Fold change /veh SPTSSB (11747773_x_at) / RFU PRSS12 (11739890_at) / Fold change /veh PRSS12 (11739890_at) / RFU BIN1 (11741810_x_at) / Fold change /veh BIN1 (11741810_x_at) / RFU WNT11 (11732464_a_at) / Fold change /veh WNT11 (11732464_a_at) / RFU C10orf10 (11716521_a_at) / Fold change /veh C10orf10 (11716521_a_at) / RFU C5orf56 (11738089_at) / Fold change /veh C5orf56 (11738089_at) / RFU CYB561 (11721691_x_at) / Fold change /veh CYB561 (11721691_x_at) / RFU ANKRD19P (11752326_a_at) / Fold change /veh ANKRD19P (11752326_a_at) / RFU OR2T12 /// OR2T33 /// OR2T8 (11738714_s_at) / Fold change /veh OR2T12 /// OR2T33 /// OR2T8 (11738714_s_at) / RFU VCAN (11748164_a_at) / Fold change /veh VCAN (11748164_a_at) / RFU JSRP1 (11732532_at) / Fold change /veh JSRP1 (11732532_at) / RFU KRTAP10-11 (11738290_x_at) / Fold change /veh KRTAP10-11 (11738290_x_at) / RFU MYO3A (11730013_a_at) / Fold change /veh MYO3A (11730013_a_at) / RFU EBF3 (11725865_a_at) / Fold change /veh EBF3 (11725865_a_at) / RFU CAMK2N1 (11719241_x_at) / Fold change /veh CAMK2N1 (11719241_x_at) / RFU C5orf56 (11738088_a_at) / Fold change /veh C5orf56 (11738088_a_at) / RFU OLFML3 (11715873_a_at) / Fold change /veh OLFML3 (11715873_a_at) / RFU LOC100653217 /// NTM (11731650_a_at) / Fold change /veh LOC100653217 /// NTM (11731650_a_at) / RFU MAPK11 (11762145_a_at) / Fold change /veh MAPK11 (11762145_a_at) / RFU FIZ1 (11724087_x_at) / Fold change /veh FIZ1 (11724087_x_at) / RFU OASL (11726364_x_at) / Fold change /veh OASL (11726364_x_at) / RFU SOX15 (11748057_x_at) / Fold change /veh SOX15 (11748057_x_at) / RFU CD79A (11719716_a_at) / Fold change /veh CD79A (11719716_a_at) / RFU HIST1H1D (11736915_at) / Fold change /veh HIST1H1D (11736915_at) / RFU CASKIN2 (11723855_a_at) / Fold change /veh CASKIN2 (11723855_a_at) / RFU LOC730098 (11760151_x_at) / Fold change /veh LOC730098 (11760151_x_at) / RFU OR4N2 (11742367_at) / Fold change /veh OR4N2 (11742367_at) / RFU PRRT2 (11749266_a_at) / Fold change /veh PRRT2 (11749266_a_at) / RFU SNX32 (11753110_a_at) / Fold change /veh SNX32 (11753110_a_at) / RFU CDHR5 (11726645_a_at) / Fold change /veh CDHR5 (11726645_a_at) / RFU RCAN1 (11760418_a_at) / Fold change /veh RCAN1 (11760418_a_at) / RFU FAM167A (11723789_a_at) / Fold change /veh FAM167A (11723789_a_at) / RFU FAM26E (11764081_at) / Fold change /veh FAM26E (11764081_at) / RFU ISYNA1 (11749810_s_at) / Fold change /veh ISYNA1 (11749810_s_at) / RFU ACY1 (11761880_at) / Fold change /veh ACY1 (11761880_at) / RFU 11764098_at / Fold change /veh 11764098_at / RFU SAMD14 (11745864_x_at) / Fold change /veh SAMD14 (11745864_x_at) / RFU NPB (11741838_a_at) / Fold change /veh NPB (11741838_a_at) / RFU TMPRSS6 (11731388_a_at) / Fold change /veh TMPRSS6 (11731388_a_at) / RFU KRTAP10-2 (11738614_at) / Fold change /veh KRTAP10-2 (11738614_at) / RFU ARHGAP8 /// PRR5-ARHGAP8 (11727945_x_at) / Fold change /veh ARHGAP8 /// PRR5-ARHGAP8 (11727945_x_at) / RFU KRTAP5-7 /// NADSYN1 (11734609_at) / Fold change /veh KRTAP5-7 /// NADSYN1 (11734609_at) / RFU RASL12 (11751679_a_at) / Fold change /veh RASL12 (11751679_a_at) / RFU CDKN2B (11736163_a_at) / Fold change /veh CDKN2B (11736163_a_at) / RFU PRF1 (11729649_at) / Fold change /veh PRF1 (11729649_at) / RFU, ZNF638 /// ZNF638-IT1 / Fold change vs veh, ZNF638 /// ZNF638-IT1 / RFU, PANK3 / Fold change vs veh, PANK3 / RFU, SH3YL1 / Fold change vs veh, SH3YL1 / RFU, ZEB2 / Fold change vs veh, ZEB2 / RFU, NRIP1 / Fold change vs veh, NRIP1 / RFU, PTTG1IP / Fold change vs veh, PTTG1IP / RFU, CAPN2 / Fold change vs veh, CAPN2 / RFU, MED14 / Fold change vs veh, MED14 / RFU, SNORA58 / Fold change vs veh, SNORA58 / RFU, C1orf63 / Fold change vs veh, C1orf63 / RFU, LRRFIP1 / Fold change vs veh, LRRFIP1 / RFU, NDUFAF7 / Fold change vs veh, NDUFAF7 / RFU, SLC12A2 / Fold change vs veh, SLC12A2 / RFU, IBTK / Fold change vs veh, IBTK / RFU, ESF1 / Fold change vs veh, ESF1 / Fold change vs veh, TMEM50B / RFU, TAOK1 / Fold change vs veh, TAOK1 / RFU, ACBD3 / Fold change vs veh, ACBD3 / RFU, TMA16 / Fold change vs veh, TMA16 / RFU, RWDD3 / Fold change vs veh, RWDD3 / RFU, BCAT1 / Fold change vs veh, BCAT1 / RFU, EDEM3 / Fold change vs veh, EDEM3 / RFU, TMEM33 / Fold change vs veh, TMEM33 / RFU, WDR75 / Fold change vs veh, WDR75 / RFU, AHCTF1 / Fold change vs veh, AHCTF1 / RFU, TFRC / Fold change vs veh, TFRC / RFU, ZDHHC17 / Fold change vs veh, ZDHHC17 / RFU, NOM1 / Fold change vs veh, NOM1 / RFU, ARL8B / Fold change vs veh, ARL8B / RFU, ZBTB11 / Fold change vs veh, ZBTB11 / RFU, TAMM41 / Fold change vs veh, TAMM41 / RFU, KIAA1704 /// LOC100996395 / Fold change vs veh, KIAA1704 /// LOC100996395 / RFU, ING1 / Fold change vs veh, ING1 / RFU, TRMT61B / Fold change vs veh, TRMT61B / RFU, FUBP3 / Fold change vs veh, FUBP3 / RFU, TP53 / Fold change vs veh, TP53 / RFU, TNKS2 / Fold change vs veh, TNKS2 / RFU, ZFP14 / Fold change vs veh, ZFP14 / RFU, ACTR2 / Fold change vs veh, ACTR2 / RFU, PPP3R1 / Fold change vs veh, PPP3R1 / RFU, PIK3R1 / Fold change vs veh, PIK3R1 / RFU, HNRNPA1 / Fold change vs veh, HNRNPA1 / RFU, RNF170 / Fold change vs veh, RNF170 / RFU, ZNF28 / Fold change vs veh, ZNF28 / RFU, RNGTT / Fold change vs veh, RNGTT / RFU, OGT / Fold change vs veh, OGT / RFU, BRD1 / Fold change vs veh, BRD1 / RFU, MARS / Fold change vs veh, MARS / RFU, ZNF655 / Fold change vs veh, ZNF655 / RFU, FAHD1 / Fold change vs veh, FAHD1 / RFU, BDP1 / Fold change vs veh, BDP1 / RFU, LRRCC1 / Fold change vs veh, LRRCC1 / RFU, ARID1A / Fold change vs veh, ARID1A / RFU, ZNF146 / Fold change vs veh, ZNF146 / RFU, ZNF330 / Fold change vs veh, ZNF330 / RFU, GPN3 / Fold change vs veh, GPN3 / RFU, C9orf123 / Fold change vs veh, C9orf123 / RFU, N4BP2L2 / Fold change vs veh, N4BP2L2 / RFU, ARFIP1 / Fold change vs veh, ARFIP1 / RFU, FAM179B / Fold change vs veh, FAM179B / RFU, BCL10 / Fold change vs veh, BCL10 / RFU, UHRF1BP1L / Fold change vs veh, UHRF1BP1L / RFU, BET1 / Fold change vs veh, BET1 / RFU, CNOT2 / Fold change vs veh, CNOT2 / RFU, ZNF268 / Fold change vs veh, ZNF268 / Fold change vs veh, ZNF507 / RFU, DGCR2 / Fold change vs veh, DGCR2 / RFU, WDSUB1 / Fold change vs veh, WDSUB1 / Fold change vs veh, HSP90B1 /// MIR3652 / RFU, ADSS / Fold change vs veh, ADSS / RFU, GK / Fold change vs veh, GK / RFU, ZNF148 / Fold change vs veh, ZNF148 / RFU, TAF9 / Fold change vs veh, TAF9 / RFU, SLC1A5 / Fold change vs veh, SLC1A5 / RFU, SLMO2 / Fold change vs veh, SLMO2 / RFU, ABCC4 / Fold change vs veh, ABCC4 / RFU, LOC101060439 /// RAP1B / Fold change vs veh, LOC101060439 /// RAP1B / RFU, RFX7 / Fold change vs veh, RFX7 / RFU, GTPBP10 / Fold change vs veh, GTPBP10 / RFU, CNEP1R1 / Fold change vs veh, CNEP1R1 / RFU, BIVM-ERCC5 /// ERCC5 / Fold change vs veh, BIVM-ERCC5 /// ERCC5 / RFU, ILF3 / Fold change vs veh, ILF3 / RFU 11762660_at / Fold change /veh 11762660_at / RFU VCAN (11757783_s_at) / Fold change /veh VCAN (11757783_s_at) / RFU DDX43 (11728927_at) / Fold change /veh DDX43 (11728927_at) / RFU KRT8 (11758188_x_at) / Fold change /veh KRT8 (11758188_x_at) / RFU NKD1 (11759106_at) / Fold change /veh NKD1 (11759106_at) / RFU SRD5A1 (11742802_a_at) / Fold change /veh SRD5A1 (11742802_a_at) / RFU TPSAB1 /// TPSB2 (11721975_s_at) / Fold change /veh TPSAB1 /// TPSB2 (11721975_s_at) / RFU GSTM3 (11746129_a_at) / Fold change /veh GSTM3 (11746129_a_at) / RFU IL23R (11737362_x_at) / Fold change /veh IL23R (11737362_x_at) / RFU TMEM51 (11727254_a_at) / Fold change /veh TMEM51 (11727254_a_at) / RFU PIWIL2 (11732686_x_at) / Fold change /veh PIWIL2 (11732686_x_at) / RFU ORM1 (11744905_x_at) / Fold change /veh ORM1 (11744905_x_at) / RFU CCDC152 (11743942_at) / Fold change /veh CCDC152 (11743942_at) / RFU ECM1 (11717891_a_at) / Fold change /veh ECM1 (11717891_a_at) / RFU IL23R (11748794_a_at) / Fold change /veh IL23R (11748794_a_at) / RFU TNFAIP8L3 (11732012_x_at) / Fold change /veh TNFAIP8L3 (11732012_x_at) / RFU MBOAT4 (11741988_at) / Fold change /veh MBOAT4 (11741988_at) / RFU 11764193_at / Fold change /veh 11764193_at / RFU TMEM53 (11763286_at) / Fold change /veh TMEM53 (11763286_at) / RFU MAGEB2 (11727129_at) / Fold change /veh MAGEB2 (11727129_at) / RFU TMEM200A (11744735_a_at) / Fold change /veh TMEM200A (11744735_a_at) / RFU CCDC152 (11751479_a_at) / Fold change /veh CCDC152 (11751479_a_at) / RFU FAM211A (11726209_a_at) / Fold change /veh FAM211A (11726209_a_at) / RFU RGS16 (11746705_a_at) / Fold change /veh RGS16 (11746705_a_at) / RFU VCAN (11755009_s_at) / Fold change /veh VCAN (11755009_s_at) / RFU RHOB (11743442_s_at) / Fold change /veh RHOB (11743442_s_at) / RFU RGS16 (11720943_a_at) / Fold change /veh RGS16 (11720943_a_at) / RFU RGS16 (11720944_at) / Fold change /veh RGS16 (11720944_at) / RFU, VPS4B / Fold change vs veh, VPS4B / RFU, CREB1 / Fold change vs veh, CREB1 / RFU, DNAJC13 / Fold change vs veh, DNAJC13 / RFU, GNAQ / Fold change vs veh, GNAQ / RFU, CDK5R1 / Fold change vs veh, CDK5R1 / RFU, ZRANB3 / Fold change vs veh, ZRANB3 / RFU, CUL4A / Fold change vs veh, CUL4A / RFU, CCNY / Fold change vs veh, CCNY / RFU, UFL1 / Fold change vs veh, UFL1 / RFU, COG3 / Fold change vs veh, COG3 / RFU, DIAPH2 / Fold change vs veh, DIAPH2 / RFU, SKA2 / Fold change vs veh, SKA2 / RFU, AFF3 / Fold change vs veh, AFF3 / RFU, LMF1 / Fold change vs veh, LMF1 / RFU, IPO11 / Fold change vs veh, IPO11 / RFU, DFFB / Fold change vs veh, DFFB / RFU, FOXP1 / Fold change vs veh, FOXP1 / RFU, CARD8 / Fold change vs veh, CARD8 / RFU, STRN3 / Fold change vs veh, STRN3 / RFU, ADK / Fold change vs veh, ADK / RFU, RASSF2 / Fold change vs veh, RASSF2 / RFU, WIPF1 / Fold change vs veh, WIPF1 / RFU, LARP1B / Fold change vs veh, LARP1B / RFU, RASA1 / Fold change vs veh, RASA1 / RFU, RB1 / Fold change vs veh, RB1 / RFU, PPFIA1 / Fold change vs veh, PPFIA1 / RFU, MAT2A / Fold change vs veh, MAT2A / RFU, CCT5 / Fold change vs veh, CCT5 / RFU, WDR92 / Fold change vs veh, WDR92 / RFU, CUX1 / Fold change vs veh, CUX1 / RFU, TTC7A / Fold change vs veh, TTC7A / RFU, TMEM135 / Fold change vs veh, TMEM135 / RFU, DEPTOR / Fold change vs veh, DEPTOR / RFU, CPM / Fold change vs veh, CPM / RFU, DNAJB6 / Fold change vs veh, DNAJB6 / RFU, CACNA2D3 / Fold change vs veh, CACNA2D3 / RFU, DTX4 / Fold change vs veh, DTX4 / RFU, TFCP2 / Fold change vs veh, TFCP2 / RFU, GMCL1 /// GMCL1P1 / Fold change vs veh, GMCL1 /// GMCL1P1 / RFU, AEBP2 / Fold change vs veh, AEBP2 / RFU, SNHG1 /// SNORD22 /// SNORD25 /// SNORD26 /// SNORD27 /// SNORD28 /// SNORD29 /// SNORD31 / Fold change vs veh, SNHG1 /// SNORD22 /// SNORD25 /// SNORD26 /// SNORD27 /// SNORD28 /// SNORD29 /// SNORD31 / Fold change (Aza/veh), C12orf56 (ProbeSet 11735607_a_at) / Fold change (ACY-1035/veh), C12orf56 (ProbeSet 11735607_a_at) / Fold change (Aza/veh), FGFR1OP (ProbeSet 11751329_s_at) / Fold change (ACY-1035/veh), FGFR1OP (ProbeSet 11751329_s_at) / Fold change (Aza/veh), VPS36 (ProbeSet 11739960_a_at) / Fold change (ACY-1035/veh), VPS36 (ProbeSet 11739960_a_at) / RFU SYPL1 (11715823_x_at) / Fold change /veh SYPL1 (11715823_x_at) / RFU IGFBP7 (11715501_s_at) / Fold change /veh IGFBP7 (11715501_s_at) / RFU REEP3 (11722064_at) / Fold change /veh REEP3 (11722064_at) / RFU IGLL1 (11728026_x_at) / Fold change /veh IGLL1 (11728026_x_at): dose or concentration left out as unconfirmed
Conditions: ProbeSet 11719817_x_at; LIST B

In the case of `Nc1ncn([C@@H]2O[C@H](CO)[C@@H](O)[C@H]2O)c(=O)n1` [azacitidine], the “Fold change vs veh, BET1” value is reported as 0.89.
